Source: US8114863B2, “Compounds comprising short aminoalcohol chains and metal complexes for medical imaging” (Guerbet, priority 2005, dated 2012)

Legend:
[1] = Relaxivity measurements (r1 from relaxation times T1/T2, Minispec 120); type: physicochemical
Protocol: […] The longitudinal relaxation time T1 is measured using an inversion recovery sequence and the transverse relaxation time T2 is measured by a CPMG technique.
The relaxation rates R1 (=1/T1) and R2 (=1/T2) were calculated for different total metal concentrations (varying from 0.1×10^−3 to 1×10^−3 mol/l) in aqueous solution at 37° C. The correlation between R1 or R2 as a function of the concentration is linear and the slope represents the relaxivity r1 (RUC) or r2 (R2/C) expressed as (1/second)×(1/mmol/l), i.e. mM^−1·s^−1.
The compounds were prepared in different media: water, NaCl, citrate, phosphate, carbonate, cocktail of ions.

[2] = Osmolality (Wescor 5220 tonometer); type: physicochemical; conditions: at administration dose of the product in man (500 mM; Gadovist 1000 mM)
C6 glioma = assay: In vivo MRI imaging study, detection of C6 glioma in rat; conditions: 0.1 mmol/kg, 2.35 T
Protocol: Compounds II (example 2) was compared to Dotarem® ans MultiHance(® for the detection of C6 glioma in rat (n=6/product). Each animal received all the three products at the same dose (0.1 mmol/kg) in a random order. A minimal delay of 4 hours has been respected between the injections in order to avoid remaining contrast from the previous injection. Enhancement was follow-up during 30 min with a T1w-Spin Echo sequence (TR/TE=498/14.2 ms, FOV=4×4 cm2, slice thickness 2 mm, interslice distance 3 mm, 192×192 matrix, 2 accumulation) on a 2.35 T system (BioSpec 24/40, Bruker, Germany). Enhancement of the lesions have been quantitatively (ROIs) and qualitatively (blinded cotation) evaluated. […] However among the three contrast agents, compound II induced a 2 fold-more pronounced contrast between the lesion and the healthy brain.

## O=C(O)CCC(C(=O)O)N1CCN(C(CCC(=O)O)C(=O)O)CCN(C(CCC(=O)O)C(=O)O)CCN(C(CCC(=O)O)C(=O)O)CC1 (stereo not shown)
[1]
  Relaxivity r1 in water (mM − 1s − 1) at 0.5 T: 6.2 mM − 1s − 1

## O=C([O-])CN1CCN(CC(=O)[O-])CCN([C@H](CO)[C@H](O)CO)CCN(CC(=O)[O-])CC1.[Gd+3] (racemic) [Gadovist ® (1M)]
[2]
  Osmality (mOsm/kg): 1400 mOsm/kg

## O=C(O)C(CCO)N1CCN(C(CCO)C(=O)O)Cc2cccc(n2)CN(C(CCO)C(=O)O)CC1 (stereo not shown) [Comparative Example 9]
[1]; field not stated
  relaxivity: 6
[1]
  Relaxivity r1 in water (mM − 1s − 1) at 0.5 T: 6 mM − 1s − 1

## CNC[C@H](O)[C@@H](O)[C@H](O)[C@H](O)CO.O=C([O-])CN1CCN(CC(=O)[O-])CCN(CC(=O)O)CCN(CC(=O)[O-])CC1.[Gd+3] [Dotarem ®]
C6 glioma
  depiction of the lesions: All the lesions have been depicted
[1]
  Relaxivity r1 at 60 MHz in water: 3.5 mM⁻¹ s⁻¹
[2]
  Osmality (mOsm/kg): 1350 mOsm/kg

## CNC[C@H](O)[C@@H](O)[C@H](O)[C@H](O)CO.CNC[C@H](O)[C@@H](O)[C@H](O)[C@H](O)CO.O=C([O-])CN(CCN(CC(=O)[O-])CC(=O)O)CCN(CC(=O)[O-])CC(=O)O.[Gd+3] [Magnevist ®]
[1]
  Relaxivity r1 at 60 MHz in water: 3.5 mM⁻¹ s⁻¹
[2]
  Osmality (mOsm/kg): 1950 mOsm/kg

## CNC[C@H](O)[C@@H](O)[C@H](O)[C@H](O)CO.CNC[C@H](O)[C@@H](O)[C@H](O)[C@H](O)CO.O=C([O-])CN(CCN(CC(=O)[O-])CC(=O)O)CCN(CC(=O)O)C(COCc1ccccc1)C(=O)[O-].[Gd+3] (stereo not shown) [MultiHance]
C6 glioma
  depiction of the lesions: All the lesions have been depicted

## O=C(CCCC(C(=O)O)N1CCN(C(CCCC(=O)NCC(O)CO)C(=O)O)Cc2cccc(n2)CN(C(CCCC(=O)NCC(O)CO)C(=O)O)CC1)NCC(O)CO (stereo not shown) [complex 7]
[1]; 20 MHz
  relaxivity at 20 MHz: 14.7 mM^−1s^−1 Gd^−1
[1]; 40 MHz
  relaxivity at 40 MHz: 12.8 mM^−1s^−1 Gd^−1
[1]; 300 MHz
  relaxivity at 300 MHz: 10.4 mM^−1s^−1 Gd^−1
